Laboratory results reported in article PMC10607100, “Anticancer and Antiphytopathogenic Activity of Fluorinated Isatins and Their Water-Soluble Hydrazone Derivatives” (International Journal of Molecular Sciences, 2023).
Where two headings read alike, the source gives them in different places.

Assays:
[1] = system: Micrococcus luteus B-109; assay: Agar-well diffusion, bactericidal activity; type: cell-based; conditions: Micrococcus luteus
In short: (§1)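 Bacteria spread on agar (BP medium; GYCa for X. campestris; pH 7.2–7.4) with 6-mm wells, each receiving 150 μL compound solution. Cultures grown at 28 °C; growth-inhibition zone width measured after 36–40 h.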

[2] = system: Pectobacterium atrosepticum 1043; assay: Agar-well diffusion, bactericidal activity; type: cell-based; conditions: Pectobacterium atrosepticum, 1043, 2 mM/L
In short: as §1

[3] = system: Pectobacterium carotovorum subsp. carotovorum MI; assay: Agar-well diffusion, bactericidal activity; type: cell-based; conditions: Pectobacterium carotovorum, 2 mM/L
In short: as §1

[4] = system: Pseudomonas fluorescens EL-2.1; assay: Agar-well diffusion, bactericidal activity; type: cell-based; conditions: Pseudomonas fluorescens, EL2.1, 2 mM/L
In short: as §1

[5] = system: Xanthomonas campestris B-610; assay: Agar-well diffusion, bactericidal activity; type: cell-based; conditions: Xanthomonas campestris
In short: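 Agar-well diffusion on GYCa agar (pH 7.2–7.4) seeded with bacterial suspension; 150 μL compound solution placed in 6-mm wells. Inhibition zone width measured after 36–40 h incubation.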

[6] = system: five representative phytopathogens; assay: Agar-well diffusion, bactericidal activity over the panel of phytopathogens; type: cell-based; conditions: for zone of inhibition at 2000 µM: 36 h, 2 mM solutions, dependent on the test system used, read-out: inhibition zone width (mm), range over the test systems; for bactericidal activity: Table S2
In short: as §1

[7] = system: Fusarium oxysporum IBPPM 543; assay: Mycelial radial growth inhibition; type: cell-based; conditions: Fusarium oxysporum; for inhibition of growth at 1 µM: 1 nmol/mL; for inhibition of growth at 1 µM / inhibition of growth at 5 µM / inhibition of growth at 20 µM / inhibition of growth at 40 µM: read-out: Inhibition value, I (%); for inhibition of growth at 5 µM: 5 nmol/mL; for inhibition of growth at 20 µM: 20 nmol/mL; for inhibition of growth at 40 µM: 40 nmol/mL; for EC50: day 5, read-out: EC50, µg/mL at Day 5, F. oxysporum
In short: (§2)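 Compounds mixed into molten GPY agar at various concentrations; centre inoculated with a 5-mm mycelial plug from 10-day cultures and incubated at 27 °C. Colony diameter compared with untreated control until control plate was covered (usually 12 days); ≥4 replicates in two experiments.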

[8] = system: Phytophthora cactorum VKM F-985; assay: Mycelial radial growth inhibition; type: cell-based; conditions: for inhibition of growth at 2 µM / inhibition of growth at 3 µM / inhibition of growth / inhibition of growth at 40 µM / inhibition of growth at 50 µM / EC50 / inhibition of growth at 1 µM / inhibition of growth at 5 µM / inhibition of growth at 15 µM: Phytophthora cactorum; for inhibition of growth at 2 µM: 2 nmol/mL; for inhibition of growth at 2 µM / inhibition of growth at 3 µM / inhibition of growth / inhibition of growth at 40 µM / inhibition of growth at 50 µM / inhibition of growth at 1 µM / inhibition of growth at 5 µM / inhibition of growth at 15 µM: read-out: Inhibition value, I (%); for inhibition of growth at 3 µM: 3 nmol/mL; for inhibition of growth: 27 nmol/mL; for inhibition of growth at 40 µM: 40 nmol/mL; for inhibition of growth at 50 µM: 50 nmol/mL; for EC50: read-out: EC50, µg/mL at Day 5, P. cactorum; for inhibition of growth at 1 µM: 1 nmol/mL; for inhibition of growth at 5 µM: 5 nmol/mL; for inhibition of growth at 15 µM: 15 nmol/mL
In short: as §2

[9] = B109, 2 mM/L, average of 3 experiments, read-out: width of the inhibition zone (mm), M. luteus
[10] = B109, Table S3, 2 mM/L, read-out: Inhibition zone width (mm), not less
[11] = average of 3 experiments, read-out: width of the inhibition zone (mm), P. atrosepticum
[12] = Table S3, read-out: Inhibition zone width (mm), not less
[13] = average of 3 experiments, read-out: width of the inhibition zone (mm), P. carotovorum subsp. carotovorum
[14] = average of 3 experiments, read-out: width of the inhibition zone (mm), Ps. fluorescens
[15] = B610, 2 mM/L, average of 3 experiments, read-out: width of the inhibition zone (mm), X. campestris
[16] = B610, Table S3, 2 mM/L, read-out: Inhibition zone width (mm), not less
[17] = IBPPM543, 72 h, age of the fungus 3 days
[18] = IBPPM543, 120 h, age of the fungus 5 days
[19] = IBPPM543, 168 h, age of the fungus 7 days
[20] = IBPPM543, 216 h, age of the fungus 9 days
[21] = 120 h, age of the fungus 5 days
[22] = 168 h, age of the fungus 7 days
[23] = 216 h, age of the fungus 9 days

`O=C(C[n+]1ccccc1)NN=C1C(=O)N(Cc2ccccc2F)c2ccc(F)cc21.[Cl-]` [Compound 5a, 1-(2-(2-(5-Fluoro-1-(2-fluorobenzyl)-2-oxoindolin-3-ylidene)hydrazinyl)-2-oxoethyl)pyridin-1-ium chloride] gave a zone of inhibition at 2000 µM [1, 9] of 4 mm, a zone of inhibition at 2000 µM [1, 10] of no less than 4 mm and a zone of inhibition at 2000 µM [2, 11] of 6 mm. For the same compound, the zone of inhibition at 2000 µM [2, 12] was no less than 6 mm, the zone of inhibition at 2000 µM [3, 13] was 3 mm and the zone of inhibition at 2000 µM [3, 12] was no less than 3 mm. For the same compound, the zone of inhibition at 2000 µM [4, 14] was 4 mm, the zone of inhibition at 2000 µM [4, 12] was no less than 4 mm and the zone of inhibition at 2000 µM [5, 15] was 3.5 mm. The zone of inhibition at 2000 µM [5, 16] was no less than 3 mm, the zone of inhibition at 2000 µM [6] was 3 to 6 mm and the “bactericidal activity” value [6] was “moderate bactericidal activity”. For the same compound, the inhibition of growth at 1 µM [7, 17] was 34%, the inhibition of growth at 5 µM [7, 17] was 39% and the inhibition of growth at 20 µM [7, 17] was 41%. The inhibition of growth at 40 µM [7, 17] was 52%, the EC50 ([7]; IBPPM543, 120 h) was 13.8 µg/mL and the inhibition of growth at 1 µM [7, 18] was 25%. The inhibition of growth at 5 µM [7, 18] was 31%, the inhibition of growth at 20 µM [7, 18] was 45% and the inhibition of growth at 40 µM [7, 18] was 54%. It also gave an inhibition of growth at 1 µM [7, 19] of 20%, an inhibition of growth at 5 µM [7, 19] of 23% and an inhibition of growth at 20 µM [7, 19] of 42%. It also gave an inhibition of growth at 40 µM [7, 19] of 51%, an inhibition of growth at 1 µM [7, 20] of 7% and an inhibition of growth at 5 µM [7, 20] of 18%. For the same compound, the inhibition of growth at 20 µM [7, 20] was 23%, the inhibition of growth at 40 µM [7, 20] was 36% and the “antagonistic effect superior to that of N-cetylpyridinium chloride” value ([8]; 5 days of growth) was 2.3 times. The “antagonistic effect superior to that of fludioxonil” value ([8]; 5 days of growth) was 2.0 times, the inhibition of growth at 2 µM ([8]; 72 h, age of the fungus 3 days) was 26% and the inhibition of growth at 3 µM ([8]; 72 h, age of the fungus 3 days) was 32%. For the same compound, the inhibition of growth ([8]; 72 h, age of the fungus 3 days) was 40%, the inhibition of growth at 40 µM ([8]; 72 h, age of the fungus 3 days) was 47% and the inhibition of growth at 50 µM ([8]; 72 h, age of the fungus 3 days) was 52%. It also gave an EC50 ([8]; 120 h, day 5) of 15 µg/mL, an inhibition of growth at 2 µM [8, 21] of 20% and an inhibition of growth at 3 µM [8, 21] of 32%. It also gave an inhibition of growth [8, 21] of 44%, an inhibition of growth at 40 µM [8, 21] of 53% and an inhibition of growth at 50 µM [8, 21] of 62%. For the same compound, the inhibition of growth at 2 µM [8, 22] was 15%, the inhibition of growth at 3 µM [8, 22] was 28% and the inhibition of growth [8, 22] was 31%. For the same compound, the inhibition of growth at 40 µM [8, 22] was 43%, the inhibition of growth at 50 µM [8, 22] was 45% and the inhibition of growth at 2 µM [8, 23] was 8%. The inhibition of growth at 3 µM [8, 23] was 19%, the inhibition of growth [8, 23] was 25% and the inhibition of growth at 40 µM [8, 23] was 36%. The inhibition of growth at 50 µM [8, 23] was 38%, the “EC50, µg/mL at Day 5, P. cactorum” value ([8]; day 5) was 15.12 µg/mL and the melting point was 180 to 182 °C.

`O=C(C[n+]1ccccc1)NN=C1C(=O)N(Cc2c(F)cccc2Cl)c2ccc(F)cc21.[Cl-]` [Compound 5b, 1-(2-(2-(5-Fluoro-1-(6-chloro-2-fluorobenzyl)-2-oxoindolin-3-ylidene)hydrazinyl)-2-oxoethyl)pyridin-1-ium chloride] gave a zone of inhibition at 2000 µM [1, 9] of 4 mm, a zone of inhibition at 2000 µM [1, 10] of no less than 4 mm and a zone of inhibition at 2000 µM [2, 11] of 4 mm. For the same compound, the zone of inhibition at 2000 µM [2, 12] was no less than 4 mm, the zone of inhibition at 2000 µM [3, 13] was 3 mm and the zone of inhibition at 2000 µM [3, 12] was no less than 3 mm. It also gave a zone of inhibition at 2000 µM [4, 14] of 2.5 mm, a zone of inhibition at 2000 µM [4, 12] of no less than 2 mm and a zone of inhibition at 2000 µM [5, 15] of 3 mm. For the same compound, the zone of inhibition at 2000 µM [5, 16] was no less than 3 mm, the zone of inhibition at 2000 µM [6] was 2.5 to 4 mm and the “bactericidal activity” value [6] was “moderate bactericidal activity”. The inhibition of growth at 1 µM [7, 17] was 9%, the inhibition of growth at 5 µM [7, 17] was 33% and the inhibition of growth at 20 µM [7, 17] was 41%. It also gave an inhibition of growth at 40 µM [7, 17] of 53%, an EC50 ([7]; IBPPM543, 120 h) of 14.8 µg/mL and an inhibition of growth at 1 µM [7, 18] of 10%. It also gave an inhibition of growth at 5 µM [7, 18] of 34%, an inhibition of growth at 20 µM [7, 18] of 42% and an inhibition of growth at 40 µM [7, 18] of 56%. The inhibition of growth at 1 µM [7, 19] was 9%, the inhibition of growth at 5 µM [7, 19] was 25% and the inhibition of growth at 20 µM [7, 19] was 34%. The inhibition of growth at 40 µM [7, 19] was 40%, the inhibition of growth at 1 µM [7, 20] was 0% and the inhibition of growth at 5 µM [7, 20] was 19%. It also gave an inhibition of growth at 20 µM [7, 20] of 28%, an inhibition of growth at 40 µM [7, 20] of 31% and an inhibition of growth at 1 µM ([8]; 72 h, age of the fungus 3 days) of 18%. For the same compound, the inhibition of growth at 5 µM ([8]; 72 h, age of the fungus 3 days) was 27%, the inhibition of growth at 15 µM ([8]; 72 h, age of the fungus 3 days) was 30% and the inhibition of growth ([8]; 72 h, age of the fungus 3 days) was 33%. For the same compound, the inhibition of growth at 40 µM ([8]; 72 h, age of the fungus 3 days) was 44%, the EC50 ([8]; 120 h, day 5) was 18.2 µg/mL and the inhibition of growth at 1 µM [8, 21] was 26%. It also gave an inhibition of growth at 5 µM [8, 21] of 35%, an inhibition of growth at 15 µM [8, 21] of 38% and an inhibition of growth [8, 21] of 43%. The inhibition of growth at 40 µM [8, 21] was 50%, the inhibition of growth at 1 µM [8, 22] was 11% and the inhibition of growth at 5 µM [8, 22] was 24%. The inhibition of growth at 15 µM [8, 22] was 29%, the inhibition of growth [8, 22] was 31% and the inhibition of growth at 40 µM [8, 22] was 44%. The inhibition of growth at 1 µM [8, 23] was 6%, the inhibition of growth at 5 µM [8, 23] was 16% and the inhibition of growth at 15 µM [8, 23] was 19%. For the same compound, the inhibition of growth [8, 23] was 26%, the inhibition of growth at 40 µM [8, 23] was 39% and the melting point was 152 to 153 °C.
